Reference: PMC10362175, “Selenium-binding protein 1 (SELENBP1) is a copper-dependent thiol oxidase” (Redox Biology, 2023)

How the values were obtained:
Type in all cases: biochemical
SELENBP1 = target: T1, SELENBP1 (Homo sapiens, UniProt Q13228); assay: coupled MGL assay, H2S (lead acetate paper) and H2O2 (fluorometric); details: Cu cofactor, HBS pH 7.4, 37 °C, 3 h
T1 construct: Strep-tagged recombinant, E. coli BL21 or KRX, Strep-Tactin XT purified, 56 kDa
T1 sequence (Q13228 2-472): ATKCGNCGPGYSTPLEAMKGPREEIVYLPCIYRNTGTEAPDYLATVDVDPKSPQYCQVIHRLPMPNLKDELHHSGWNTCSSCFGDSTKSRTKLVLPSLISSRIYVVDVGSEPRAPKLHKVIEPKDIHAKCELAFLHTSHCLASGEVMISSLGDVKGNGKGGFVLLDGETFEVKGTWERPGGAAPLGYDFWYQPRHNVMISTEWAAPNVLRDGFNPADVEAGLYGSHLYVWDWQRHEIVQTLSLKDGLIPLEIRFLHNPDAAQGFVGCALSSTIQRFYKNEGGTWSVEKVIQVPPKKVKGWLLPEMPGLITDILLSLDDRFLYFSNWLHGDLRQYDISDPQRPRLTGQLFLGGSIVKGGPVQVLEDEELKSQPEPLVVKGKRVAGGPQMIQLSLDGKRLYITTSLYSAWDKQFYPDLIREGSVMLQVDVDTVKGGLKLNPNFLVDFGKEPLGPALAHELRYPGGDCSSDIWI

SEMO-1 = target: T2, SEMO-1 (Caenorhabditis elegans, UniProt Q9XXF9); assay: as above; details: Cu cofactor; methanethiol generated in situ from L-methionine; HBS pH 7.4; 37 °C, 3 h
T2 construct: Strep-tagged recombinant, E. coli BL21 or KRX, Strep-Tactin XT purified

[1] = target: T3, methionine gamma-lyase (MGL) (Brevibacterium aurantiacum, UniProt A0A2H1K3G9); assay: DTNB (Ellman's reagent) trapping of volatile thiol, […] nm; details: HBS, 3 h
T3 construct: gene BAUR9175_03070
T3 sequence (A0A2H1K3G9 14-406 limits assumed): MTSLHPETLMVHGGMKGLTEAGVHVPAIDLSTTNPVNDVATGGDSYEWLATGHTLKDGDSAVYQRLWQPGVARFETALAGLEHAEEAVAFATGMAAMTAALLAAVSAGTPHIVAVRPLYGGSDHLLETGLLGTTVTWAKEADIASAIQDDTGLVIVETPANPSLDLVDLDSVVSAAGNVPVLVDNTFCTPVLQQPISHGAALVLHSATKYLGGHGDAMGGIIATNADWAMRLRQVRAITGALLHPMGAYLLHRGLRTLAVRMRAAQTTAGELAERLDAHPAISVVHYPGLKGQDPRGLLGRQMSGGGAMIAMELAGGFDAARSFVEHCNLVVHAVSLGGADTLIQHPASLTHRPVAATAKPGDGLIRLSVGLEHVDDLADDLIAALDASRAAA

T2 sequence (Q9XXF9 entry or part of it): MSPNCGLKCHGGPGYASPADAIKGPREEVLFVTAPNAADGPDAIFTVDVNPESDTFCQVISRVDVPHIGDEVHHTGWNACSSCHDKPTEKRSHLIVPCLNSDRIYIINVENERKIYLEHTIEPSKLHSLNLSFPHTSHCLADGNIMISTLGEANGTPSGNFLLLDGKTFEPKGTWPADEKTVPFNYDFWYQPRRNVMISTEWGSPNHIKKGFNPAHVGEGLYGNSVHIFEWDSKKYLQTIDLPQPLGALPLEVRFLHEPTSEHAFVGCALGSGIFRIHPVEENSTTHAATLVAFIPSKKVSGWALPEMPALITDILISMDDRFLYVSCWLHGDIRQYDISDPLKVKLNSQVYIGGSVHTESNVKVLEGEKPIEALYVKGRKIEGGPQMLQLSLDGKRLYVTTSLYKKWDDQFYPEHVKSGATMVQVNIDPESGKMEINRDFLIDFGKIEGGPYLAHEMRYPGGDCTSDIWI

CS [methanethiol]
coupled MGL assay, H2S (lead acetate paper) and H2O2 (fluorometric) (SELENBP1; methanethiol generated in situ from L-methionine): methanethiol and ethanethiol are by far the best SELENBP1 substrates
coupled MGL assay, H2S (lead acetate paper) and H2O2 (fluorometric) (SEMO-1): only the addition of cupric ions was capable of regenerating and even enhancing MTO activity

N[C@@H](CCS)C(=O)O [L-homocysteine]
DTNB (Ellman's reagent) trapping of volatile thiol, 412 nm ([1]; product H2S): ethanethiol, methaneselenol and H2S were generated by MGL-mediated elimination from their precursor amino acids

CCS [ethanethiol]
coupled MGL assay, H2S (lead acetate paper) and H2O2 (fluorometric) (SELENBP1; ethanethiol generated in situ from DL-ethionine): methanethiol and ethanethiol are by far the best SELENBP1 substrates

CSCC[C@H](N)C(=O)O [L-methionine]
DTNB (Ellman's reagent) trapping of volatile thiol, 412 nm ([1]; product methanethiol): MGL-mediated generation of methanethiol from methionine served as positive control
